Data as given in patent publication US20240197699A1, “BE[…] FOR USE IN THERAPY” (MOLECULAR RESEARCH PHARMACT S.R.L., priority 2021, published 2024).

Tests used:
[1] = tested on: AMPK, the downstream intracellular mediator of adiponectin receptors; test: Concentration-dependent activation of AMPK in HT22 neuronal cells (western blot, pAMPK/AMPK); format: cell-based, mouse; conditions: HT22 cells, 0, 10, 25 nM, 30 minutes, serum-free DMEM
Procedure: A rabbit anti-phospho-AMPK polyclonal antibody (pAMPK) (Cell Signaling Technology, Ltd.), a rabbit anti-AMPK polyclonal antibody (Cell Signaling Technology, Ltd.) and an HRP conjugated mouse monoclonal anti-β-actin antibody (Cell Signaling Technology, Ltd.) were used as primary antibodies after being suitably diluted. An HRP-labeled rabbit IgG goat antibody (Dako, Glostrup, Denmark) was used as a secondary antibody.
(§1) Under conditions of 5% CO2 at 37° C., mouse neuronal cells (HT22) were maintained and expanded in a Dulbecco-modified high-glucose Eagle medium (DMEM, GIBCO, Invitrogen, Life Technologies Hong Kong Ltd.), containing 10% fetal bovine serum (FBS, HiClone, Cytiva Co., Ltd.) and 1% v/v penicillin/streptomycin (Life Technologies Hong Kong Ltd.).
The compound was dissolved in DMSO (Sigmaldrich Co Ltd.) at a concentration of 10 mM as a stock. […]
Each cell sample was homogenized in ice-cold lysis buffer (Cell Signaling Technology, USA), containing a cocktail of protease inhibitors, by ultrasonic homogenizer before being centrifuged at 12,000×g, 4° C. for 15 min. […] The protein concentration of each fraction was measured using the BioRad Protein Assay reagent (Bio-Rad Laboratories, Inc.). […] The densitometric analysis of the bands detected by the chemiluminescent reaction was quantified by the Image J software (NIH: National Institutes of Health). […]

[2] = biological target: T1, AdipoR1 (Mus musculus, UniProt Q91VH1); test: AMPK activation by the compound in HT22 cells under AdipoR1 knock-down (siAdipoR1); format: cell-based; conditions: HT22 cells transfected with siAdipoR1, compound 25 nM, 30 minutes
T1 construct: siAdipoR1, siAdipoR2 were prepared in DMEM to break down the expression of AdipoR1 and AdipoR2, respectively; endogenous in cells; host or cells: HT22 mouse neuronal cells
T1 sequence (Q91VH1 1-375): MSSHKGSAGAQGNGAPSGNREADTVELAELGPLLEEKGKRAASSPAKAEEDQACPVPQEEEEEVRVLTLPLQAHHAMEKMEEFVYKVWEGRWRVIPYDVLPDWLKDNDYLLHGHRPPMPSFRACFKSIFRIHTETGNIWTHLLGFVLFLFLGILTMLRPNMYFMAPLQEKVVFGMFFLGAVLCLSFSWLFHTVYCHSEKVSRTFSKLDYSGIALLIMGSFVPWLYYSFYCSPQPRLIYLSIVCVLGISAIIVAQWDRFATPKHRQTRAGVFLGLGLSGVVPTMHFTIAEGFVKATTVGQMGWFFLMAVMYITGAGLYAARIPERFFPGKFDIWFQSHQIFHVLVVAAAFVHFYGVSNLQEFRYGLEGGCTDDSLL
Source text: A rabbit adiponectin anti-receptor 1 polyclonal antibody (AdipoR1)(Abcam, Cambridge, MA, USA), a rabbit adiponectin anti-receptor 2 polyclonal antibody (AdipoR2) (Boster Biological Technology, USA), an anti-phospho-AMPK (pAMPK) rabbit polyclonal antibody (Cell Signaling Technology, Ltd.), an anti-AMPK rabbit polyclonal antibody (Cell Signaling Technology, Ltd.) and an HRP conjugated mouse monoclonal anti-§ (beta)-actin antibody (Cell Signaling Technology, Ltd.) were used as primary antibodies after being suitably diluted. An HRP conjugated goat anti-rabbit IgG antibody (Dako, Glostrup, Denmark) was used as secondary antibody.
as §1, with “are” for “were”
SiRNA scramble (non-targeting RNA), siAdipoR1 and siAdipoR2 were purchased from Santa Cruz Biotechnology. siAdipoR1, siAdipoR2 were prepared in DMEM to break down the expression of AdipoR1 and AdipoR2, respectively. […]
The extraction of each soluble fraction and the quantification of the proteins in each soluble fraction by western blot analysis were performed according to procedures similar to section 1.4 of Experiment 1.

[3] = tested on: NSC-34 cells; test: Viability of NSC-34 neuronal cells under high glucose (hyperglycemia-induced apoptosis); format: cell-based; conditions: pre-treatment 25 nM, then 100 mM glucose
Procedure: A high glucose level is the cause of neuronal apoptosis leading to diabetic neuropathy. To examine whether SS-SRGR-(+7) can protect neurons from the hyperglycemic condition, neuronal cells in different glucose concentrations (0, 25, 50, 100 mM) were grown. […] NSC-34 neurons were then pre-treated with or without SS-SRGR-(+7)(25 nM) prior to incubation with 100 mM glucose.

Which results are given for `CC1C2Cc3ccc(O)cc3C1(C)CCN2CCC(C(=O)N(C)C)(c1ccccc1)c1ccccc1` (stereo not drawn) [SS-SRGR-(+7), 4-(8-hydroxy-6,11-dimethyl-1,4,5,6-tetrahydro-2,6-methane-3-benzazocin-3(2H)-yl)-N,N-dimethyl-2,2-diphenylbutanamide]?
amounts of pAMPK proteins (pAMPK/AMPK ratio, densitometry) [1]: increase significantly in a concentration-dependent manner; SS-SRGR-(+7)-induced AMPK activation under Adipo-R1 knock-down compared to siCtrl-transfected HT22 cells [2]: significantly reduced; Cell viability of pretreated NSC34 cells versus vehicle-pretreated NSC34 [3]: significantly higher
